The nature of the data set: Clearance in human liver microsomes. The format is ADME, Microsome. The note with it: read-out: CLH.

For `O=c1[nH]c(Cc2ccccc2)nc2c1cnn2C1CCCC1`, the CLint scaled worked out at 200 mL/min/kg.
